Laboratory results from the NIST ThermoML archive (doi:10.1016/j.jct.2015.10.013).
Where “and” joins values, the source holds several entries; their conditions need not be identical. Equal entries are not always repeated.

Legend:
[1] = Crystal, Calculated from knudsen effusion weight loss
[2] = molar enthalpy of vaporization or sublimation; details: 298.15 K; Crystal; Static calorimetry

CN1c2ccccc2Sc2ccccc21 [10-methylphenothiazine]
[1]
Details	vapor or sublimation pressure
337.16 K	9.9e-05 kPa and 9.8e-05 kPa and 9.7e-05 kPa
339.27 K	0.000127 kPa and 0.000128 kPa and 0.000124 kPa
341.16 K	0.000156 kPa and 0.000152 kPa
343.16 K	0.000187 kPa and 0.000186 kPa and 0.000188 kPa
345.25 K	0.000242 kPa and 0.000237 kPa and 0.000246 kPa
347.15 K	0.000294 kPa and 0.000295 kPa and 0.000286 kPa
349.16 K	0.000354 kPa and 0.000353 kPa and 0.000361 kPa
351.26 K	0.000456 kPa and 0.000445 kPa and 0.00046 kPa
353.16 K	0.000551 kPa and 0.000553 kPa and 0.000539 kPa
355.16 K	0.000655 kPa and 0.000671 kPa
357.26 K	0.000853 kPa and 0.00084 kPa and 0.000822 kPa
359.15 K	0.001002 kPa and 0.001018 kPa and 0.00102 kPa

Details	molar enthalpy [kcal/mol]
[2]	24.8
